Results from paper PMC10843894 (Cell and tissue research, 2011).
Ends that are not written are not given here.

Columns and labels:
[1] = test system: intracellular Ca^2+; assay: Secretin-induced catecholamine secretion with intracellular Ca2+ chelator; type: cell-based, rat; details: BAPTA-AM 50 μM pre-treatment 30 min; secretin 8 μM, 20 min, Ca2+-free buffer + 0.5 mM EGTA
[2] = test system: phospholipase C; details: U-73122 20 μM, secretin 8 μM, 0.5 min
[3] = test system: PLC-β; assay: Inhibition of secretin-evoked catecholamine secretion by PLC-β blockade; type: cell-based, rat; details: secretin 8 μM, 20 min
[4] = test system: plasma membrane Ca^2+ channels; type: cell-based, rat
[5] = test system: plasma membrane Ca^2+ channels; type: cell-based, rat; details: ZnCl2 100 μM; data not shown
[6] = test system: catecholamine secretion; details: cited from earlier work
[7] = test system: Th gene; details: cited from earlier work; for transcription of Th (PACAP and VIP, literature): porcine/bovine chromaffin cells, PC12 cells, CATH.a cells, ref Isobe et al. 1996, Park et al. 1999, Tonshoff et al. 1997, Corbitt et al. 1998, 2002, Yukimasa et al. 1999, Muller et al. 1997
[8] = test system: cAMP in PC12 cells; details: cited from earlier work
[9] = biological target: T1, VPAC1 (Rattus norvegicus, UniProt P30083); assay: Blockade of secretin-induced Th transcription by VPAC1 antagonist; details: pre-treatment before secretin 0.1 μM (Fig. 1d)
T1 sequence (P30083 31-459): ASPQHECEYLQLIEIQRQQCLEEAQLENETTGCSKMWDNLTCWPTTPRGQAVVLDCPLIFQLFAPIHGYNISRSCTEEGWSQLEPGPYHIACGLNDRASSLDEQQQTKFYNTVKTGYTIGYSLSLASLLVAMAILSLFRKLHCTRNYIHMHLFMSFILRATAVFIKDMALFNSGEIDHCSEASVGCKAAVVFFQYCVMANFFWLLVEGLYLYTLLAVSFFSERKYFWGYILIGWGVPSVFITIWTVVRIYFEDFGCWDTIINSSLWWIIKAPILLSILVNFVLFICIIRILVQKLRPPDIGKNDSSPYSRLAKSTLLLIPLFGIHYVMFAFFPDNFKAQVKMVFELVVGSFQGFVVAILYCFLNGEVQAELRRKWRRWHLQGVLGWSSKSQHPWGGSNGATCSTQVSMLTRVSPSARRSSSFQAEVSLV

[10] = test system: PAC1 receptor; assay: PAC1 receptor agonism inferred from secretion concentrations; type: cell-based; details: inferred from secretion findings
[11] = test system: SCTR; assay: Inhibition of secretin-induced catecholamine secretion by SCTR antagonist; type: cell-based, rat; details: antagonist up to 20 μM, secretin 6 μM, 30 min

Compound: CC(=O)OCOC(=O)CN(CC(=O)OCOC(C)=O)c1ccccc1OCCOc1ccccc1N(CC(=O)OCOC(C)=O)CC(=O)OCOC(C)=O [BAPTA-AM]
- effect of BAPTA-AM on secretin-induced catecholamine secretion [1]: completely abolished

Compound: COc1ccc2c(c1)CC[C@@H]1[C@@H]2CC[C@]2(C)[C@@H](NCCCCCCN3C(=O)C=CC3=O)CC[C@@H]12 [U73122]
- inhibition of IP3 levels by PLC blockade [2]: ~ 61%
- inhibition of secretin-evoked catecholamine secretion by PLC-β inhibitor ([3]; U-73122 10 μM): ~ 54%

Compound: COc1ccc2c(c1)CC[C@@H]1[C@@H]2CC[C@]2(C)[C@@H](NCCCCCCN3C(=O)CCC3=O)CC[C@@H]12 [U-73343]
- effect of inactive isomer on secretin-induced secretion ([3]; U-73343 10 μM): did not affect secretin-induced secretion

Compound: [Cl-].[Cl-].[Zn+2] [ZnCl2]
- effect of non-specific Ca2+ channel blockade on secretin-induced secretion ([4]; ZnCl2 100 μM, secretin 8 μM, 20 min): ineffective
- block of PACAP-induced catecholamine secretion [5]: completely blocked

Compound: CN1CCC[C@H]1c1cccnc1 [nicotine]
- prolonged catecholamine secretion, nicotine (literature) ([6]; ref Hamelink et al. 2002): does not cause prolonged catecholamine secretion

Compound: Pituitary adenylyl cyclase activating polypeptide [PACAP]
- concentration achieving significant catecholamine secretion (PACAP) ([6]; ref Chowdhury et al. 1994, Przywara et al. 1996): 10 nM
- prolonged catecholamine secretion, PACAP (literature) ([6]; ref Taupenot et al. 1999): long-lasting
- transcription of Th (PACAP and VIP, literature) [7]: augment the transcription of Th
- intracellular cAMP levels in chromaffin cells (literature), PACAP ([8]; ref Hamelink et al. 2002): elevated

Compound: VIP6–28: VPAC1 (VIP6–28) antagonist (FTDNYTRLRKQMAVKKYLNSILN; ends and bridges not checked; UniProt P01282 130-152, looked up, fragment)
- effect on secretin-induced transcription of Th gene, VPAC1 antagonist [9]: Failure
- effect of VPAC1 antagonist on Th gene expression induced by secretin or PHI ([7]; ref Wessels-Reiker et al. 1993): no significant effect
- effect of VPAC1 antagonist on VIP-increased Th mRNA ([7]; ref Wessels-Reiker et al. 1993): lowers the effect of VIP on increasing Th mRNA

Compound: Vasoactive intestinal polypeptide [VIP]
- concentration achieving significant catecholamine secretion (VIP) ([6]; ref Guo and Wakade 1994, Wakade et al. 1991): 300 nM
- source of Ca2+ for VIP-induced catecholamine secretion ([6]; ref Malhotra et al. 1988): depends solely upon Ca^2+ mobilization from intracellular stores
- transcription of Th (PACAP and VIP, literature) [7]: augment the transcription of Th
- intracellular cAMP levels in chromaffin cells (literature), VIP ([8]; ref Anderova et al. 1998): elevated
- agonism at PAC1 receptor [10]: poor agonists for the PAC1 receptor

Compound: secretin5–27: SCTR antagonist (secretin5–27) (TFTSELSRLREGARLQRLLQGLV; ends and bridges not checked; UniProt P09683 32-54, looked up, fragment)
- effect of SCTR antagonist on VIP- or PHI-induced Th gene expression ([7]; ref Wessels-Reiker et al. 1993): no significant effect
- effect of SCTR antagonist on secretin-induced Th gene expression (literature) ([7]; ref Wessels-Reiker et al. 1993): reduces the effect of secretin
- effect of SCTR antagonist on secretin-induced secretion [11]: failed to inhibit secretion

Compound: ω-agatoxin
- effect of Ca2+ channel inhibitors on secretin-induced catecholamine secretion [4]: little to no effect

Compound: ω-conotoxin GVIA
- effect of Ca2+ channel inhibitors on secretin-induced catecholamine secretion [4]: little to no effect

Compound: ω-conotoxin MVIIC
- effect of Ca2+ channel inhibitors on secretin-induced catecholamine secretion [4]: little to no effect
